# Assays:
# [1] = Relaxivity (r1, r2) in reconstituted human serum (Seronorm™ Human); format: physicochemical; details: Between 0 and 1 mM (Seronorm™ Human), 20 MHz, 39° C.
# Excerpt: (§1) Relaxivity values of the contrast agent of the present invention have been tested either in saline or in human serum obtained by Seronorm™ Human, freeze-dried human serum produced by Nycomed Pharma AS, Oslo, Norway. Serum obtained from said Seronorm™ is substantially equivalent to the fresh one, so its use in the relaxivity determination grants a good picture of the “in vivo” behaviour and, further, an excellent reproducibility of this test.
# The compounds object of the present invention are characterised by very high r1 and r2 relaxivity values. When measured in Seronorm™ Human at 20 MHz, at a temperature of 39° C., and at a concentration comprised from 0 to 1 mM, compounds of the present invention usually have r1 relaxivity equal to or, preferably, higher than 15^s−1mM^−1, thus confirming the formation of unexpectedly strong non-covalent bonds with serum proteins. […] Last, significative amounts of the preferred compounds of the invention have also been found in the urines, showing that, thanks to their binding to HSA, the same are very promising as blood pool diagnostic agents.
# [2] = Relaxivity (r1, r2) in saline; format: physicochemical; details: NaCl 0.15 M in water, pH 7.3, 20 MHz, 39° C.
# Excerpt: as §1
compound,measurement,setting,value
O=C(O)CN(CCN(CCN(CC(=O)O)CC(=O)O)C(CCCCNC(=O)C(c1ccccc1)c1ccccc1)C(=O)O)CC(=O)O (centres unmarked),Relaxivity Serum r1,[1],20.1 mM⁻¹ s⁻¹
same,Relaxivity Saline r1,[2],5.70 mM⁻¹ s⁻¹
